Results reported in patent publication US8865894B2, “Oxazolidin-2-one compounds and uses thereof” (Novartis AG, priority 2012, dated 2014).

The molecules below were run against PI3Kgamma (Homo sapiens, UniProt P48736) (assay: Biochemical PI3Kgamma (TR-FRET Adapta Universal Kinase Assay)). Details: mean of n measurements, read-out: PIK3g/ IC50.
Protocol: Test compounds were dissolved in DMSO (10 mM) and transferred into 1.4 mL flat bottom or V-shaped Matrix tubes carrying a unique 2D matrix chip by individual Novartis compound hubs. The numbers of these chips were distinctively linked to Novartis Pharma Numbers. The stock solutions were stored at −20° C. if not used immediately. For the test procedure the vials were defrosted and identified by a scanner whereby a working sheet was generated that guided the subsequent working steps.
Compounds were either manually diluted in DMSO for individual experiments (96 wells enabling 10 cpds at 8 (single points) concentrations) as described in or prepared as described below if tested for profiling in 384-wells. This format enabled the assay of maximally 40 individual test compounds at 8 concentrations (single points) including 4 reference compounds. The dilution protocol included the production of “pre-dilution plates”, “master plates” and “assay plates”.
96 polypropylene well plates were used as pre-dilution plates. A total of 4 pre-dilution plates were prepared including 10 test compounds each on the plate positions A1-A10, one standard compound at A11 and one DMSO control at A12. Programs have been written to run these pipetting steps on the HamiltonSTAR robots.
100 μL of individual compound dilutions including standard compound and controls of the 4 “pre-dilution plates” were transferred into a 384 “master plate” including the following concentrations 1,820, 564, 182, 54.6, 18.2, 5.46, 1.82 and 0.546 μM, respectively in 90% DMSO.
Identical “assay plates” were then prepared by pipetting 50 nL each of compound dilutions of the “master plates” into 384-well “assay plates”. The compounds were mixed with 4.5 μL of assays components plus 4.5 μL enzyme corresponding to a 1:181 dilution enabling the final concentration of 10, 3.0, 1.0, 0.3, 0.1, 0.03, 0.01 and 0.003 μM, respectively. The preparation of the “master plates” was handled by the Matrix PlateMate Plus robot and replication of “assay plates” by the HummingBird robot.
The TR-FRET Adapta™ Universal Kinase Assay Kit was purchased from Invitrogen Corporation (Carlsbad/CA, USA) (Cat. No. PV5099). The kit contains the following reagents: Adapta Eu-anti-ADP Antibody (Europium labeled anti-ADP antibody in HEPES buffered saline, Cat. No. PV5097), Alexa Fluor® 647-labeled ADP tracer (Alexa Fluor® 647-labeled ADP tracer in HEPES buffered saline, Cat. No. PV5098), proprietary TR-FRET dilution buffer pH 7.5 (Cat. No. PV3574).
PIK3CD substrate Phosphatidylinositol was obtained from Invitrogen (vesicules consisting of 2 mM PI in 50 mM HEPES pH7.5; Cat. No. PV5371). PIK3CG substrate Phosphatidylinositol-4,5-bisphosphate (PIP(4,5)2 was obtained from Invitrogen (PIP2:PS large unilamellar vesicules consisting of 1 mM PIP2: 19 mM PS in 50 mM HEPES pH7.5, 3 mM MgCl2, 1 mM EGTA; Cat. No. PV5100).
Time-Resolved Fluorescence Resonance Energy Transfer (TR-FRET) is a technology based on energy transfer between two adjacent dyes, from an excited electron in one dye (the donor) to an electron of an adjacent dye (the acceptor) through resonance, then released as a photon. This energy transfer is detected by an increase in the fluorescence emission of the acceptor, and a decrease in the fluorescence emission of the donor. TR-FRET assays for protein kinases use a long-lifetime lanthanide Terbium or Europium chelates as the donor species which overcome interference from compound autofluorescence or light scatter from precipitated compounds, by introducing a delay after excitation by a flashlamp excitation source. Results are often expressed as a ratio of the intensities of the acceptor and donor fluorophores. The ratiometric nature of such a value corrects for differences in assay volumes between wells, as well as corrects for quenching effects due to colored compounds. The Adapta™ assay can be divided into two phases: a kinase reaction phase and an ADP detection phase. […]

Chain of PI3Kgamma (P48736 whole entry, species assumed): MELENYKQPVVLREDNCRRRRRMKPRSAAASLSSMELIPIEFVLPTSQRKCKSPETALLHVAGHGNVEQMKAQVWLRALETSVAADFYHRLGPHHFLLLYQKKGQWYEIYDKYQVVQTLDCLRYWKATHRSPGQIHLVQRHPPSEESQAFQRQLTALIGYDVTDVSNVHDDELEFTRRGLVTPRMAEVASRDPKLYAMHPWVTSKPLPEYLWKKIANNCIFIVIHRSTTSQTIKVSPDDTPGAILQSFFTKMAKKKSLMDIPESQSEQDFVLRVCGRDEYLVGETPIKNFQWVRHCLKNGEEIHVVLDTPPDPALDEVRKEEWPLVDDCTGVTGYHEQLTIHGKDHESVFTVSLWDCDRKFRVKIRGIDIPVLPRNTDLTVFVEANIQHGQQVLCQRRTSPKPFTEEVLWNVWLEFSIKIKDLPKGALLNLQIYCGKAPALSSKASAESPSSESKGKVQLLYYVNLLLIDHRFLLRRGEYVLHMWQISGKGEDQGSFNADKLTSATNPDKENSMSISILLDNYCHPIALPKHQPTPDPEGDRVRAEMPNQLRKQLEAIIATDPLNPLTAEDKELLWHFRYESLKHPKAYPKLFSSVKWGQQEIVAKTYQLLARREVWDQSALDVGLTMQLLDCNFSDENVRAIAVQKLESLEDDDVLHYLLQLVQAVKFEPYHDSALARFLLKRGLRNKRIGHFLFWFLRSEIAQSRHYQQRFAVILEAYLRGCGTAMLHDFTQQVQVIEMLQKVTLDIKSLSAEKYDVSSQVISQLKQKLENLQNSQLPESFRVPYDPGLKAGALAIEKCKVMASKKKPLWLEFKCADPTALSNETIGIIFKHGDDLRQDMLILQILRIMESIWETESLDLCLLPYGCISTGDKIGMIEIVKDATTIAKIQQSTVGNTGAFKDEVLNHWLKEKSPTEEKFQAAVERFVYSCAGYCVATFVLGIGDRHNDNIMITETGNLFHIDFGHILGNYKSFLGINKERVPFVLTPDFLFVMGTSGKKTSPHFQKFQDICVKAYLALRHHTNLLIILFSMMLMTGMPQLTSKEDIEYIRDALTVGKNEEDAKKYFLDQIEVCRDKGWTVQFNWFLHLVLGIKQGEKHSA

| IC50 [nM] | SMILES |
| --- | --- |
| 290 | C[C@H]1C(CC(C)(C)O)OC(=O)N1c1cc(-c2cnc(N)nc2C(F)(F)F)nc(N2CCOCC2)n1 (mixture of isomers) [Example 26, (4S,5R)- and (4S,5S)-3-(2′-amino-2-morpholino-4′-(trifluoromethyl)-[4,5′-bipyrimidin]-6-yl)-5-(2-hydroxy-2-methylpropyl)-4-methyloxazolidin-2-one] |
| 540 | C[C@@H](O)C[C@H]1OC(=O)N(c2cc(-c3cnc(N)nc3C(F)(F)F)nc(N3CCOCC3)n2)[C@H]1C (single isomer, unassigned) [Example 24] |
| 205 | C[C@H](O)CC1OC(=O)N(c2cc(-c3cnc(N)nc3C(F)(F)F)nc(N3CCOCC3)n2)[C@H]1C (single isomer, unassigned) [Example 25] |
| 258 | C[C@@H]1OC(=O)N(c2cc(-c3cnc(N)nc3C(F)(F)F)nc(N3CCOCC3)n2)[C@H]1CO [Example 6] |
| 1660 | C[C@H]1OC(=O)N(c2cc(-c3cnc(N)nc3C(F)(F)F)nc(N3CCOCC3)n2)[C@H]1COC=O [Example 12, Formic acid (4S,5R)-3-(2′-amino-2-morpholin-4-yl-4′-trifluoromethyl-[4,5′]bipyrimidinyl-6-yl)-5-methyl-2-oxo-oxazolidin-4-ylmethyl ester] |
| 338 | C[C@H]1[C@H](CO)OC(=O)N1c1cc(-c2cnc(N)nc2C(F)(F)F)nc(N2CCOCC2)n1 [Example 15, (4S,5R)-3-(2′-Amino-2-morpholin-4-yl-4′-trifluoromethyl-[4,5′]bipyrimidinyl-6-yl)-5-hydroxymethyl-4-methyl-oxazolidin-2-one] |
| 253 | C[C@H]1OC(=O)N(c2cc(-c3cnc(N)nc3C(F)(F)F)nc(N3CCOCC3)n2)[C@H]1CO [Example 18, (4S,5R)-3-(2′-Amino-2-morpholin-4-yl-4′-trifluoromethyl-[4,5′]bipyrimidinyl-6-yl)-4-hydroxymethyl-5-methyl-oxazolidin-2-one] |
| 184 | C[C@H]1[C@@H](CO)OC(=O)N1c1cc(-c2cnc(N)nc2C(F)(F)F)nc(N2CCOCC2)n1 [Example 19, (4S,5S)-3-(2′-Amino-2-morpholin-4-yl-4′-trifluoromethyl-[4,5′]bipyrimidinyl-6-yl)-5-hydroxymethyl-4-methyl-oxazolidin-2-one] |

Continued, molecule first:

| SMILES | IC50 [nM] |
| --- | --- |
| CC1(CO)COC(=O)N1c1cc(-c2cnc(N)nc2C(F)(F)F)nc(N2CCOCC2)n1 (racemic) [Example 3, 3-(2′-amino-2-morpholino-4′-(trifluoromethyl)-4,5′-bipyrimidin-6-yl)-4-(hydroxymethyl)-4-methyloxazolidin-2-one] | 516 |
| Nc1ncc(-c2cc(N3C(=O)O[C@@H]4[C@@H](O)CC[C@@H]43)nc(N3CCOCC3)n2)c(C(F)(F)F)n1 (racemic) [Example 22, (3aR*,6R*,6aR*)-3-(2′-Amino-2-morpholino-4′-(trifluoromethyl)-[4,5′-bipyrimidin]-6-yl)-6-hydroxyhexahydro-2H-cyclopenta[d]oxazol-2-one] | 145 |
| Nc1ncc(-c2cc(N3C(=O)OC4C(O)CCC43)nc(N3CCOCC3)n2)c(C(F)(F)F)n1 (single isomer, unassigned) [Example 22A] | 110 |
| Nc1ncc(-c2cc(N3C(=O)OC4C(O)CCC43)nc(N3CCOCC3)n2)c(C(F)(F)F)n1 (single isomer, unassigned) [Example 22B] | 410 |
| C[C@H]1COC(=O)N1c1cc(-c2cnc(N)nc2C(F)(F)F)nc(N2CCOCC2)n1 [Example 1, (S)-3-(2′-Amino-2-morpholin-4-yl-4′-trifluoromethyl-[4,5′]bipyrimidinyl-6-yl)-4-methyl-oxazolidin-2-one] | 276 |
| CC1(C)OC(=O)N(c2cc(-c3cnc(N)nc3C(F)(F)F)nc(N3CCOCC3)n2)[C@H]1CO [Example 2, (S)-3-(2′-Amino-2-morpholin-4-yl-4′-trifluoromethyl-[4,5′]bipyrimidinyl-6-yl)-4-hydroxymethyl-5,5-dimethyl-oxazolidin-2-one] | 348 |
| Nc1ncc(-c2cc(N3C(=O)O[C@H]4CCCC[C@@H]43)nc(N3CCOCC3)n2)c(C(F)(F)F)n1 [Example 4, (3aS,7aS)-3-(2′-Amino-2-morpholin-4-yl-4′-trifluoromethyl-[4,5′]bipyrimidinyl-6-yl)-hexahydro-benzooxazol-2-one] | 238 |
| COC[C@H]1COC(=O)N1c1cc(-c2cnc(N)nc2C(F)(F)F)nc(N2CCOCC2)n1 [Example 5, (S)-3-(2′-Amino-2-morpholin-4-yl-4′-trifluoromethyl-[4,5′]bipyrimidinyl-6-yl)-4-methoxymethyl-oxazolidin-2-one] | 329 |
| [2H]C1([2H])OC([2H])([2H])C([2H])([2H])N(c2nc(-c3cnc(N)nc3C(F)(F)F)cc(N3C(=O)O[C@H](C)[C@@H]3CO)n2)C1([2H])[2H] [Example 8] | 237 |
| Nc1ncc(-c2cc(N3C(=O)OC[C@@H]3CCO)nc(N3CCOCC3)n2)c(C(F)(F)F)n1 [Example 9, (S)-3-(2′-Amino-2-morpholin-4-yl-4′-trifluoromethyl-[4,5′]bipyrimidinyl-6-yl)-4-(2-hydroxy-ethyl)-oxazolidin-2-one] | 1130 |
| C[C@H]1OC(=O)N(c2cc(-c3cnc(N)nc3C(F)(F)F)nc(N3CCOC[C@@H]3C)n2)[C@H]1CO [Example 10, (4S,5R)-3-[2′-Amino-2-((S)-3-methyl-morpholin-4-yl)-4′-trifluoromethyl-[4,5′]bipyrimidinyl-6-yl]-4-hydroxymethyl-5-methyl-oxazolidin-2-one] | 158 |
| Nc1ncc(-c2cc(N3CCOC3=O)nc(N3CCOCC3)n2)c(C(F)(F)F)n1 [Example 11, 3-(2′-Amino-2-morpholin-4-yl-4′-trifluoromethyl-[4,5′]bipyrimidinyl-6-yl)-oxazolidin-2-one, reference compound] | 998 |
| C[C@H]1COCCN1c1nc(-c2cnc(N)nc2C(F)(F)F)cc(N2C(=O)OC[C@@H]2C)n1 [Example 13, (S)-3-[2′-Amino-2-((S)-3-methyl-morpholin-4-yl)-4′-trifluoromethyl-[4,5′]bipyrimidinyl-6-yl]-4-methyl-oxazolidin-2-one] | 386 |
| Nc1ncc(-c2cc(N3C[C@@H](CO)OC3=O)nc(N3CCOCC3)n2)c(C(F)(F)F)n1 [Example 14, (S)-3-(2′-Amino-2-morpholin-4-yl-4′-trifluoromethyl-[4,5′]bipyrimidinyl-6-yl)-5-hydroxymethyl-oxazolidin-2-one] | 1230 |
| C[C@H]1CN(c2cc(-c3cnc(N)nc3C(F)(F)F)nc(N3CCOCC3)n2)C(=O)O1 [Example 16, (S)-3-(2′-Amino-2-morpholin-4-yl-4′-trifluoromethyl-[4,5′]bipyrimidinyl-6-yl)-5-methyl-oxazolidin-2-one] | 770 |
| [2H]C1([2H])OC([2H])([2H])C([2H])([2H])N(c2nc(-c3cnc(N)nc3C(F)(F)F)cc(N3C(=O)OC[C@@H]3C)n2)C1([2H])[2H] [Example 17, (S)-3-(2′-amino-2-D8-morpholino-4′-(trifluoromethyl)-[4,5′-bipyrimidin]-6-yl)-4-methyloxazolidin-2-one] | 328 |
| Nc1ncc(-c2cc(N3C[C@H](CO)OC3=O)nc(N3CCOCC3)n2)c(C(F)(F)F)n1 [Example 20, (R)-3-(2′-Amino-2-morpholin-4-yl-4′-trifluoromethyl-[4,5′]bipyrimidinyl-6-yl)-5-hydroxymethyl-oxazolidin-2-one] | 601 |
| Nc1ncc(-c2cc(N3C(=O)O[C@H]4COC[C@H]43)nc(N3CCOCC3)n2)c(C(F)(F)F)n1 [Example 21, (3aR,6aR)-3-(2′-amino-2-morpholino-4′-(trifluoromethyl)-[4,5′-bipyrimidin]-6-yl)-tetrahydrofuro[3,4-d]oxazol-2(3H)-one] | 370 |
